Data published in patent US20040192771A1, “Ether compounds and compositions for cholesterol management and related uses” (priority 2001, published 2004).
Like-named read-outs stand apart in the source and are kept apart here.

Assays:
primary rat hepatocytes = test: Inhibition of lipid synthesis ([1-14C]-acetate incorporation) in primary cultures of rat hepatocytes; assay type: cell-based; conditions: Hepatocyte, total lipid synthesis, 4 hours incubation
Description: Compounds were tested for inhibition of lipid synthesis in primary cultures of rat hepatocytes. Male Sprague-Dawley rats were anesthetized with intraperitoneal injection of sodium pentobarbital (80 mg/kg). Rat hepatocytes were isolated essentially as described by the method of Seglen (Seglen, P. O. Hepatocyte suspensions and cultures as tools in experimental carcinogenesis. J. Toxicol. Environ. Health 1979, 5, 551-560). Hepatocytes were suspended in Dulbecco's Modified Eagles Medium containing 25 mM D-glucose, 14 mM HEPES, 5 mM L-glutamine, 5 mM leucine, 5 mM alanine, 10 mM lactate, 1 mM pyruvate, 0.2% bovine serum albumin, 17.4 mM non-essential amino acids, 20% fetal bovine serum, 100 nM insulin and 20 μg/mL gentamycin) and plated at a density of 1.5×10^5 cells/cm^2 on collagen-coated 96-well plates. Four hours after plating, media was replaced with the same media without serum. Cells were grown overnight to allow formation of monolayer cultures. Lipid synthesis incubation conditions were initially assessed to ensure the linearity of [1-^14C]-acetate incorporation into hepatocyte lipids for up to 4 hours. Hepatocyte lipid synthesis inhibitory activity was assessed during incubations in the presence of 0.25 μCi [1-^14C]-acetate/well (final radiospecific activity in assay is 1 Ci/mol) and 0, 1, 3, 10, 30, 100 or 300 μM of compounds for 4 hours. At the end of the 4-hour incubation period, medium was discarded and cells were washed twice with ice-cold phosphate buffered saline and stored frozen prior to analysis. To determine total lipid synthesis, 170 μl of MicroScint-E® and 50 μl water was added to each well to extract and partition the lipid soluble products to the upper organic phase containing the scintillant. Lipid radioactivity was assessed by scintillation spectroscopy in a Packard TopCount NXT.

obese female Zucker rats = test: Oral daily treatment of obese female Zucker rats for fourteen days; serum lipids and glycemic control indicators; assay type: in vivo; conditions: Rattus norvegicus, percent change from study prebleed; for change in vivo at 100 mg/kg/day: 100 mg/kg/day oral; for change in vivo at 30 mg/kg/day: 30 mg/kg/day oral
Description: In a number of different experiments, illustrative compounds of the invention are administered daily at a dose of up to 100 mg/kg to chow fed obese female Zucker rats for fourteen days in the morning by oral gavage in 1.5% carboxymethylcellulose/0.2% Tween 20 or 20% ethanol/80% polyethylene glycol (dosing vehicles). Animals are weighed daily. Animals are allowed free access to rodent chow and water throughout the study except on days of blood sampling where food is restricted for six hours prior to blood sampling. Blood glucose is determined after the 6 hour fast in the afternoon without anesthesia from a tail vein. Serum is also prepared from pretreatment blood samples subsequently obtained from the orbital venous plexus (with O2/CO2 anesthesia) and following the fourteenth dose at sacrifice from the heart following O2/CO2 anesthesia. Serums are assayed for lipoprotein cholesterol profiles, triglycerides, total cholesterol, Non HDL cholesterol, HDL cholesterol, the ratio of HDL cholesterol to that of Non HDL cholesterol, insulin, non esterified fatty acids, and beta hydroxy butyric acid. The percent body weight gain and the ratio of liver to body weight is also determined. These are shown as absolute values or as a percent change of the pretreatment values in Table C. [drawing 479] [drawing 480]

[1] = 168 h, week 1, read-out: Glucose
[2] = 168 h, week 1, read-out: Insulin
[3] = 168 h, week 1, read-out: Non-HDL-C
[4] = 336 h, week 2, read-out: Glucose
[5] = 336 h, week 2, read-out: Insulin
[6] = 336 h, week 2, read-out: Non-HDL-C

Row | Compound | IC50 (primary rat hepatocytes) | change in vivo at 100 mg/kg/day (obese female Zucker rats; [1]) | change in vivo at 100 mg/kg/day (obese female Zucker rats; 168 h, week 1, read-out: HDL-C) | change in vivo at 100 mg/kg/day (obese female Zucker rats; [2]) | change in vivo at 100 mg/kg/day (obese female Zucker rats; [3]) | change in vivo at 100 mg/kg/day (obese female Zucker rats; 168 h, week 1, read-out: TC) | change in vivo at 100 mg/kg/day (obese female Zucker rats; 168 h, week 1, read-out: TG) | change in vivo at 100 mg/kg/day (obese female Zucker rats; [4]) | change in vivo at 100 mg/kg/day (obese female Zucker rats; 336 h, week 2, read-out: HDL-C) | change in vivo at 100 mg/kg/day (obese female Zucker rats; [5]) | change in vivo at 100 mg/kg/day (obese female Zucker rats; [6]) | change in vivo at 100 mg/kg/day (obese female Zucker rats; 336 h, week 2, read-out: TC) | change in vivo at 100 mg/kg/day (obese female Zucker rats; 336 h, week 2, read-out: TG) | change in vivo at 30 mg/kg/day (obese female Zucker rats; 168 h, week 1, read-out: HDL-C) | change in vivo at 30 mg/kg/day (obese female Zucker rats; [2]) | change in vivo at 30 mg/kg/day (obese female Zucker rats; 168 h, week 1, read-out: TC) | change in vivo at 30 mg/kg/day (obese female Zucker rats; 168 h, week 1, read-out: TG) | change in vivo at 30 mg/kg/day (obese female Zucker rats; [4]) | change in vivo at 30 mg/kg/day (obese female Zucker rats; 336 h, week 2, read-out: HDL-C) | change in vivo at 30 mg/kg/day (obese female Zucker rats; [5]) | also measured
1 | CC(CO)(CCCOCCCC(C)(CO)c1ccccc1)c1ccccc1 (stereo not drawn) [Compound 110, 5-(5-Hydroxy-4-methyl-4-phenylpentyloxy)-2-methyl-2-phenylpentan-1-ol] | 143 µM | 12% | 7% | -2% | -32% | -4% | -27% | 10% | 5% | -6% | -26% | -4% | -18% |  |  |  |  |  |  |  | 
2 | CC(CO)(CCCCOCCCCC(C)(CO)c1ccccc1)c1ccccc1 (stereo not drawn) [Compound 111, 6-(6-Hydroxy-5-methyl-5-phenylhexyloxy)-2-methyl-2-phenylhexan-1-ol] | 106 µM |  |  |  |  |  |  |  |  |  |  |  |  | -4% | -37% | -17% | -14% | -18% | -28% | -36% | change in vivo at 30 mg/kg/day (obese female Zucker rats; [3]): -33%; change in vivo at 30 mg/kg/day (obese female Zucker rats; [6]): -1%; change in vivo at 30 mg/kg/day (obese female Zucker rats; 336 h, week 2, read-out: TC): -20%; change in vivo at 30 mg/kg/day (obese female Zucker rats; 336 h, week 2, read-out: TG): -7%
3 | CC(C)(CCCCOCCCCC(C)(C)COC1CCCCO1)COC1CCCCO1 (stereo not drawn) [Compound 122, 2-{6-[5,5-Dimethyl-6-(tetrahydropyran-2-yloxy)-hexyloxy]-2,2-dimethylhexyloxy}-tetrahydropyran] | 20 µM | -7% | 43% | -18% | 46% | 42% | -1% | 9% | 79% | -20% | 92% | 79% | 22% |  |  |  |  |  |  |  | 
4 | CC(C)(CO)CCCCOCCCC(C)(C)CO [Compound 126, 6-(5-Hydroxy-4,4-dimethylpentyloxy)-2,2-dimethylhexan-1-ol] | 17 µM | 68% | 630% | 240% | -28% | 119% | -63% | 9% | 786% | 145% | -17% | 161% | -58% |  |  |  |  |  |  |  | 
5 | CC(CO)(CCCCOCCCC(C)(CO)c1ccccc1)c1ccccc1 (stereo not drawn) [Compound 127, 6-(5-Hydroxy-4-methyl-4-phenylpentyloxy)-2-methyl-2-phenylhexan-1-ol] |  |  |  |  |  |  |  |  |  |  |  |  |  | -2% | 3% | 3% | 0% | -3% | -20% | 0% | change in vivo at 30 mg/kg/day (obese female Zucker rats; [1]): 5%; change in vivo at 30 mg/kg/day (obese female Zucker rats; [6]): 45%; change in vivo at 30 mg/kg/day (obese female Zucker rats; 336 h, week 2, read-out: TC): 2%; change in vivo at 30 mg/kg/day (obese female Zucker rats; 336 h, week 2, read-out: TG): 21%
6 | CC(C)(CO)CCCCOCCCCC(C)(C)CO [Compound 128, 6-(6-Hydroxy-5,5-dimethylhexyloxy)-2,2dimethylhexan-1-ol] | 10 µM |  |  |  |  |  |  |  |  |  |  |  |  | 174% | 48% | 131% | -52% | 44% | 349% | 48% | change in vivo at 30 mg/kg/day (obese female Zucker rats; [1]): 2%; change in vivo at 30 mg/kg/day (obese female Zucker rats; [3]): -14%; change in vivo at 30 mg/kg/day (obese female Zucker rats; [6]): 59%; change in vivo at 30 mg/kg/day (obese female Zucker rats; 336 h, week 2, read-out: TC): 224%; change in vivo at 30 mg/kg/day (obese female Zucker rats; 336 h, week 2, read-out: TG): -39%
7 | CC(C)(CO)CCCCOCCCCC(C)(CO)c1ccccc1 (stereo not drawn) [Compound 129, 6-(6-Hydroxy-5-methyl-5-phenylhexyloxy)-2,2-dimethyl-hexan-1-ol] | 4.7 µM | 14% | 26% | 2% | -55% | -6% | -61% | 4% | 52% | 6% | -13% | 26% | -45% |  |  |  |  |  |  |  | 
8 | CC(C)(CO)CCCCCOCCCCC(C)(C)CO [Compound 130, 7-(6-Hydroxy-5,5-dimethylhexyloxy)-2,2-dimethylheptan-1-ol] | 8.4 µM |  |  |  |  |  |  |  |  |  |  |  |  | 71% | 25% | 41% | -66% | 6% | 105% | 13% | change in vivo at 30 mg/kg/day (obese female Zucker rats; [1]): 6%; change in vivo at 30 mg/kg/day (obese female Zucker rats; [3]): -26%; change in vivo at 30 mg/kg/day (obese female Zucker rats; [6]): 17%; change in vivo at 30 mg/kg/day (obese female Zucker rats; 336 h, week 2, read-out: TC): 77%; change in vivo at 30 mg/kg/day (obese female Zucker rats; 336 h, week 2, read-out: TG): -47%
9 | CC(C)(CO)CCCCCOCCCCCC(C)(C)CO [Compound 131, 7-(7-Hydroxy-6,6-dimethylheptyloxy)-2,2-dimethylheptan-1-ol] | 3.8 µM | -6% | 292% | 40% | -79% | 85% | -91% | -5% | 289% | -1% | -57% | 106% | -88% |  |  |  |  |  |  |  | 
10 | CC(C)(CO)CCCOCCOCCCC(C)(C)CO [Compound 149, 5-[2-(5-Hydroxy-4,4-dimethylpentyloxy)-ethoxy]-2,2-dimethylpentan-1-ol] |  |  |  |  |  |  |  |  |  |  |  |  |  | 37% | -40% | -7% | -37% | -27% | 17% | -26% | change in vivo at 30 mg/kg/day (obese female Zucker rats; [1]): -20%; change in vivo at 30 mg/kg/day (obese female Zucker rats; [3]): -48%; change in vivo at 30 mg/kg/day (obese female Zucker rats; [6]): -27%; change in vivo at 30 mg/kg/day (obese female Zucker rats; 336 h, week 2, read-out: TC): -7%; change in vivo at 30 mg/kg/day (obese female Zucker rats; 336 h, week 2, read-out: TG): -30%
